Results published in patent US9896441B2 (Lycera Corporation, priority 2014, dated 2018).

Tests used:
RORγ-LBD = biological target: T1, RORγ-LBD (Homo sapiens, UniProt P51449); experiment: RORγ-Ligand Binding Domain (LBD) TR-FRET Assay; assay type: biochemical; conditions: RORγ-LBD TR-FRET
T1 construct: made in house; host or cells: SF9 cells (baculovirus); used as diluted lysate
T1 sequence (P51449 269-508 limits assumed): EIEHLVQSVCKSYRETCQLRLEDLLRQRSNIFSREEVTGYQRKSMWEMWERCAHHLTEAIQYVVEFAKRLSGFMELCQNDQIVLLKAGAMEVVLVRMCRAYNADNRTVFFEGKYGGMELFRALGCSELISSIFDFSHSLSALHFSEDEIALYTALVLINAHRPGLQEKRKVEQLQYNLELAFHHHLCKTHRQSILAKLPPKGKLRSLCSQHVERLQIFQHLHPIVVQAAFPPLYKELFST
Outline: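 SF9 lysate containing His-RORγ-LBD, ~3 nM final; coactivator peptide biotin-SRC1 LXXLL, 200 nM final; ursolic acid 2 μM final; DMSO 1% final; Tris pH 7.0 buffer with KCl, EDTA, DTT, BSA. TR-FRET format.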

Gal4-RORγ-LBD = biological target: T2, Gal4-RORγ-LBD (Homo sapiens, UniProt P51449); experiment: Gal4-RORγ Luciferase Reporter Assay in HEK-293T Cells; assay type: cell-based; conditions: HEK-293 cells, luciferase reporter, with ursolic acid
T2 construct: expressed in transfected cells
T2 sequence (P51449 269-508 limits assumed): T1 sequence (P51449 269-508 limits assumed)
Outline: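 HEK-293 cells were co-transfected with Gal4-RORγ-LBD and a Gal4-luciferase reporter, then exposed overnight at 37 °C to compounds with […] ursolic acid present (0.2% DMSO). Luminescence was read with One-Glo after 10 min at RT, untreated signal was set as 100, and Max Response was taken as the upper plateau of a 4-parameter logistic fit.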

SMILES | EC50 (RORγ-LBD) [nM] | EC50 (Gal4-RORγ-LBD) [nM]
COC(=O)CC[C@H]1CN(S(=O)(=O)c2cc(Cl)cnc2OCCO)c2cc(/C=C(\C)c3c(F)cccc3Cl)ccc2O1 [Example 69, Methyl (S,E)-3-(4-((5-chloro-2-(2-hydroxyethoxy)pyridin-3-yl)sulfonyl)-6-(2-(2-chloro-6-fluorophenyl)prop-1-en-1-yl)-3,4-dihydro-2H-benzo[b][1,4]oxazin-2-yl)propanoate] | < 500 | > 10000
C/C(=C\c1ccc2c(c1)N(S(=O)(=O)c1cc(Cl)cnc1OCCO)C[C@H](CCC(=O)O)O2)c1c(F)cccc1Cl [Example 70, (S,E)-3-(4-((5-Chloro-2-(2-hydroxyethoxy)pyridin-3-yl)sulfonyl)-6-(2-(2-chloro-6-fluorophenyl)prop-1-en-1-yl)-3,4-dihydro-2H-benzo[b][1,4]oxazin-2-yl)propanoic acid] | < 500 | < 500
C/C(=C\c1ccc2c(c1)N(S(=O)(=O)c1cc(C(F)(F)F)cnc1OCCO)C[C@H](CCC(=O)O)O2)c1c(F)cccc1Cl [Example 71, (S,E)-3-(6-(2-(2-Chloro-6-fluorophenyl)prop-1-en-1-yl)-4-((2-(2-hydroxyethoxy)-5-(trifluoromethyl)pyridin-3-yl)sulfonyl)-3,4-dihydro-2H-benzo[b][1,4]oxazin-2-yl)propanoic acid] | < 500 | < 500
CCOc1sc(CC)nc1S(=O)(=O)N1C[C@H](CCC(=O)OC)Oc2ccc(/C=C(\C)c3c(F)cccc3Cl)cc21 [Example 72, Methyl (S,E)-3-(6-(2-(2-chloro-6-fluorophenyl)prop-1-en-1-yl)-4-((5-ethoxy-2-ethylthiazol-4-yl)sulfonyl)-3,4-dihydro-2H-benzo[b][1,4]oxazin-2-yl)propanoate] | < 500 | < 500
CCOc1sc(CC)nc1S(=O)(=O)N1C[C@H](CCC(=O)O)Oc2ccc(/C=C(\C)c3c(F)cccc3Cl)cc21 [Example 73, (S,E)-3-(6-(2-(2-Chloro-6-fluorophenyl)prop-1-en-1-yl)-4-((5-ethoxy-2-ethylthiazol-4-yl)sulfonyl)-3,4-dihydro-2H-benzo[b][1,4]oxazin-2-yl)propanoic acid] | < 500 | < 500
COC(=O)CC[C@H]1CN(S(=O)(=O)c2cncc(C(F)(F)F)c2)c2cc(/C=C(\C)c3c(F)cccc3Cl)ccc2O1 [Example 74, Methyl (S,E)-3-(6-(2-(2-chloro-6-fluorophenyl)prop-1-en-1-yl)-4-((5-(trifluoromethyl)pyridin-3-yl)sulfonyl)-3,4-dihydro-2H-benzo[b][1,4]oxazin-2-yl)propanoate] | < 500 | 500 to 5000
C/C(=C\c1ccc2c(c1)N(S(=O)(=O)c1cncc(C(F)(F)F)c1)C[C@H](CCC(=O)O)O2)c1c(F)cccc1Cl [Example 75, (S,E)-3-(6-(2-(2-Chloro-6-fluorophenyl)prop-1-en-1-yl)-4-((5-(trifluoromethyl)pyridin-3-yl)sulfonyl)-3,4-dihydro-2H-benzo[b][1,4]oxazin-2-yl)propanoic acid] | < 500 | 500 to 5000

Further lines, results first:

EC50 (RORγ-LBD) [nM] | EC50 (Gal4-RORγ-LBD) [nM] | SMILES
< 500 | 500 to 5000 | CCOc1ncc(C(F)(F)F)cc1S(=O)(=O)N1C[C@H](CCC(=O)OC)Oc2ccc(/C=C(\C)c3c(Cl)cccc3C(F)(F)F)cc21 [Example 76, Methyl (S,E)-3-(6-(2-(2-chloro-6-(trifluoromethyl)phenyl)prop-1-en-1-yl)-4-((2-ethoxy-5-(trifluoromethyl)pyridin-3-yl)sulfonyl)-3,4-dihydro-2H-benzo[b][1,4]oxazin-2-yl)propanoate]
< 500 | 500 to 5000 | CCOc1ncc(C(F)(F)F)cc1S(=O)(=O)N1C[C@H](CCC(=O)O)Oc2ccc(/C=C(\C)c3c(Cl)cccc3C(F)(F)F)cc21 [Example 77, (S,E)-3-(6-(2-(2-Chloro-6-(trifluoromethyl)phenyl)prop-1-en-1-yl)-4-((2-ethoxy-5-(trifluoromethyl)pyridin-3-yl)sulfonyl)-3,4-dihydro-2H-benzo[b][1,4]oxazin-2-yl)propanoic acid]
500 to 5000 | 500 to 5000 | COC(=O)CC[C@H]1CN(S(=O)(=O)c2cc(C(F)(F)F)cnc2OC[C@@H](C)O)c2cc(/C=C/c3c(F)cccc3Cl)ccc2O1 [Example 78, Methyl 3-((S)-6-((E)-2-chloro-6-fluorostyryl)-4-((2-((R)-2-hydroxypropoxy)-5-(trifluoromethyl)pyridin-3-yl)sulfonyl)-3,4-dihydro-2H-benzo[b][1,4]oxazin-2-yl)propanoate]
< 500 | 500 to 5000 | C[C@@H](O)COc1ncc(C(F)(F)F)cc1S(=O)(=O)N1C[C@H](CCC(=O)O)Oc2ccc(/C=C/c3c(F)cccc3Cl)cc21 [Example 79, 3-((S)-6-((E)-2-Chloro-6-fluorostyryl)-4-((2-((R)-2-hydroxypropoxy)-5-(trifluoromethyl)pyridin-3-yl)sulfonyl)-3,4-dihydro-2H-benzo[b][1,4]oxazin-2-yl)propanoic acid]
< 500 | 500 to 5000 | CCn1cc(S(=O)(=O)N2C[C@H](CCC(=O)O)Oc3ccc(/C=C(\C)c4c(F)cccc4Cl)cc32)c(OCCO)n1 [Example 80, (S,E)-3-(6-(2-(2-Chloro-6-fluorophenyl)prop-1-en-1-yl)-4-((1-ethyl-3-(2-hydroxyethoxy)-1H-pyrazol-4-yl)sulfonyl)-3,4-dihydro-2H-benzo[b][1,4]oxazin-2-yl)propanoic acid]
< 500 | < 500 | COC(=O)CC[C@H]1CN(S(=O)(=O)c2cccc(C(F)F)c2)c2cc(/C=C/c3c(Cl)cccc3C(F)(F)F)ccc2O1 [Example 81, Methyl (S,E)-3-(6-(2-chloro-6-(trifluoromethyl)styryl)-4-((3-(difluoromethyl)phenyl)sulfonyl)-3,4-dihydro-2H-benzo[b][1,4]oxazin-2-yl)propanoate]
< 500 | < 500 | O=C(O)CC[C@H]1CN(S(=O)(=O)c2cccc(C(F)F)c2)c2cc(/C=C/c3c(Cl)cccc3C(F)(F)F)ccc2O1 [Example 82, (S,E)-3-(6-(2-Chloro-6-(trifluoromethyl)styryl)-4-((3-(difluoromethyl)phenyl)sulfonyl)-3,4-dihydro-2H-benzo[b][1,4]oxazin-2-yl)propanoic acid]
< 500 | 500 to 5000 | COC(=O)CC[C@H]1CN(S(=O)(=O)c2cccc(C(C)(F)F)c2)c2cc(/C=C/c3c(Cl)cccc3C(F)(F)F)ccc2O1 [Example 83, Methyl (S,E)-3-(6-(2-chloro-6-(trifluoromethyl)styryl)-4-((3-(1,1-difluoroethyl)phenyl)sulfonyl)-3,4-dihydro-2H-benzo[b][1,4]oxazin-2-yl)propanoate]
< 500 | < 500 | CC(F)(F)c1cccc(S(=O)(=O)N2C[C@H](CCC(=O)O)Oc3ccc(/C=C/c4c(Cl)cccc4C(F)(F)F)cc32)c1 [Example 84, (S,E)-3-(6-(2-Chloro-6-(trifluoromethyl)styryl)-4-((3-(1,1-difluoroethyl)phenyl)sulfonyl)-3,4-dihydro-2H-benzo[b][1,4]oxazin-2-yl)propanoic acid]
< 500 | < 500 | C/C(=C\c1ccc2c(c1)N(S(=O)(=O)c1cn(C3CC3)nc1OCCO)C[C@H](CCC(=O)O)O2)c1c(F)cccc1Cl [Example 85, (S,E)-3-(6-(2-(2-Chloro-6-fluorophenyl)prop-1-en-1-yl)-4-((1-cyclopropyl-3-(2-hydroxyethoxy)-1H-pyrazol-4-yl)sulfonyl)-3,4-dihydro-2H-benzo[b][1,4]oxazin-2-yl)propanoic acid]
